Results on 1 compound are retold here after patent US9974767B2, “Statins in the treatment of muscular dystrophies and myopathies” (University of Washington, priority 2014, dated 2018).

The test system of data set [1] is mdx mice. In words: H&E histology of tibialis anterior (TA) muscle. It is filed as in vivo, mouse. Particulars: mdx Sim vs mdx Con, 8 months treatment.
Data set [2] has as its system WT mice. In words: Plasma CK activity in wild type mice. Format: in vivo, mouse. To be noted: 8 months treatment, vs untreated WT. As to the method: The activity levels of the mice were measured by voluntary running wheel activity over 2 days. […] Therefore, since CK was measured after the running wheel activity, the dramatic reduction in CK levels in Simvastatin-treated mdx mice is not related to exercise levels. […] Therefore, statins cause a robust reduction in CK release from dystrophic muscle both in long-term treated mice starting from a young age (3 weeks to 8 months), and in old mice (12 months) over a 2 month period.
(§1) DMD is a chronic, progressively degenerative disease and consequently potential treatments need to be effective over many years. […] The calculated dose given to the mice was between 5-10 mg/kg/day. This would equate to 20-40 mg/day for a 10 yea old DMD boy weighing 30 kg, based on mouse to human equivalence calculations, which is within the recommended dose range of statins for children.
Male dystrophin-deficient (mdx) and wild type (WT) mice on the C57BL/10ScSn background were used for all experiments, which were approved by the Institutional Animal Care and Use Committee (IACUC) at the University of Washington.
Simvastatin powder (TCI America) was formulated as a treatment in two ways; in the drinking water and in the food. […]
Plasma CK was evaluated as a measure of whole body muscle damage. […]

The subject of data set [3] is WT mice. Nature of the data set: H&E histology of TA muscle, wild type mice. Format: in vivo, mouse. To be noted: 8 months, 5-10 mg/kg/day. As for the experimental part: The dose used (5-10 mg/kg/day) is equivalent to a low to moderate dose in humans.
as §1
Muscles were imbedded in O.C.T compound and frozen in isopentane cooled in liquid nitrogen. Cryosections (10 μm thick) were placed on a glass side. Sections were fixed with either ice-cold methanol or 2% paraformaldehyde for 5 to 10 min. Some sections were stained with Haemotoxylin and Eosin (H & E) using standard procedures. For immunofluorescence, sections were incubated in blocking buffer (0.8% BSA and 1% fish gelatin in PBS) for 45 min. […] For fluorescence quantification (CD68, fibronectin and myosin heavy chains), images were converted to grayscale in Image J and a threshold applied to calculate the area of fluorescence as a percent of the total area of the section. Fibers with central nuclei were expressed as a percent of total fibers with detectable nuclei (ie. both central and peripheral).

The test system of data set [4] is immortalized mdx myoblast cell line. In words: Differentiation of immortalized mdx myoblasts into myotubes. Format: cell-based, mouse. As for the experimental part: However, the statin concentrations required to induce these deleterious effects in vitro are typically 1 μM or greater. These concentrations are considerably (100-1000 times) higher than those found in vivo in mice and humans. […] We then carried out an in vitro experiment using an immortalized mdx myoblast cell line.
Immortomouse mdx myoblasts were grown on gelatin coated plates and until 70% confluence in DMEM supplemented with 10% HS, 20% FBS, 0.5% chicken embryo extract and 20 units/ml of γ-interferon. […] Myotubes were washed in PBS, fixed in ice-cold methanol for 10 min, and H&E stained. Images of myotubes were taken with a Nikon inverted microscope (W.M. Keck Center, University of Washington).

Data set [5] deals with mdx mice. In words: Diaphragm specific force, ex vivo muscle strips. Format: in vivo, mouse. An excerpt:
Therefore, it is often difficult to fully evaluate the therapeutic potential of these compounds. When compared with results obtained with a clinically relevant dystrophin gene therapy approach, the magnitude of increased diaphragm force in Simvastatin-treated mice (25%) is quite impressive. Specifically, systemic delivery of a micro-dystrophin-expressing AAV vector to mdx mice provides a slightly lower (20%) average improvement in diaphragm specific force.
In mdx mice, the diaphragm is the most severely affected skeletal muscle and diaphragm dysfunction is a major cause of respiratory failure in DMD.
The diaphragm most closely recapitulates the functional deficits and fibrotic deposition that occur in DMD. […] The replacement of muscle fibers with fibrotic connective tissue is a major cause of impaired muscle force generation in DMD and therefore an important therapeutic target. […] Quantification of total collagen I levels in diaphragm muscles by hydroxyproline assay also indicated a 50% reduction in fibrosis for mdx Sim mice (FIG. 13E).
Diaphragm function, ex vivo, was measured as described previously. Briefly, diaphragm strips (2-3 mm wide) were perfused with a physiological solution bubbled with 95% O2-5% CO2. Stimulation was provided by two platinum electrodes, attached along the sides of the chamber. A lengthforce curve, established using 120 Hz isometric contractions (300 ms duration spaced 1 min apart, established the optimum length (length producing maximum tetanic force), which was later used to calculate the specific force (force divided by cross-sectional area).

The test system of data set [6] is atrogin-1. In words: Atrogin-1 mRNA in quadriceps muscles, qPCR. Particulars: old mdx Sim mice. Format: in vivo, mouse. An excerpt: Another pathway that has been implicated in statin myopathy is muscle atrophy mediated by atrogin-1, a ubiquitin-protein ligase that stimulates protein breakdown. Atrogin-1 is induced by statin treatment in animal models and humans with statininduced myopathy. However, in DMD, atrogin-1 levels are consistently lower than in normal muscle and are not increased at any stage of the disease.
Total RNA was isolated from quadriceps of WT, mdx, and simvastatintreated mdx mice using Trizol (Life Technologies) and further purified using an RNAeasy Kit (Qiagen). Real-time quantitative RT-PCR (qPCR) was performed using TaqMan chemistry and the ABI 7000 sequence detection system with 50 ng of RNA, ABI Fast Virus 1-Step Master Mix reagents, and primer sets specific for atrogin-1 and HPRT (Applied Biosystems). Data were obtained from 5 mice in each treatment group and normalized to the internal HPRT control.

For data set [7], the system named is mdx mice. In words: Voluntary running wheel activity over 2 days. To be noted: P=0.13. It is filed as in vivo, mouse.

Values joined by “and” are separate entries in the source; they are usually repeats but may differ in a detail not shown here. Equal entries are not always repeated. “Also recorded” adds a separate entry of the source.

Regarding `CCC(C)(C)C(=O)O[C@H]1C[C@@H](C)C=C2C=C[C@H](C)[C@H](CC[C@@H]3C[C@@H](O)CC(=O)O3)[C@H]21` [Simvastatin, simvastatin], the “number of centrally nucleated (regenerated) muscle fibers” value in data set [1] is listed as “comparable number”. Moreover, the “CK levels of WT mice” value in data set [2] is given as “no difference; also recorded: no effect”; in data set [2] (listed as simvastatin), “no effect”. In addition, the “muscle histology of WT mice (damage, inflammation)” value in data set [3] is listed as “no effect; also recorded: no evidence of muscle damage or inflammation”; in data set [3] (listed as simvastatin), “no effect”. Further, the “muscle differentiation, myotube formation” value in data set [4] (50 to 500 nM, 3 days) was “appeared similar to untreated cells”. The “doses at which simvastatin became more toxic, number of viable cells decreased” value in data set [4] (3 days of treatment) was not below 1 µM. For the same compound, the “improvement of diaphragm specific force” value in data set [5] (mdx Sim vs mdx Con, 8 months treatment, stimulation 1 to 120 Hz) was 25% and 20-25%; in data set [5] (mdx Sim vs mdx Con, 8 months treatment, stimulation 1 to 120 Hz, listed as simvastatin), 20-25%; in data set [5] (old mdx mice, 2 months treatment from 12 months of age, 10 to 120 Hz, vs untreated mdx), 20-30%. Also, the “atrogin-1 mRNA levels” value in data set [6] is “not significantly different from mdx Con”. The “voluntary running wheel activity, more than control mdx mice” value in data set [7] was 20%.
